# Patent US20240199598A1 (MITOIMMUNE THERAPEUTICS INC., priority 2021, published 2024)
# Legend:
# [1] = Stability test of Crystalline form III of sulfate (light, dark, 60° C., 40° C./75% RH); type: physicochemical
# Method: The chemical and physical stability of Crystalline form III were studied under conditions of light, light-shielding, 60° C. and 40° C./75% RH for 1 month. […] In the light stability test, the crystalline form was stored in a light stability test chamber without a lid and thus exposed to a total illuminance of 1.2 million lux-hr, and a sample vial completely covered with an aluminum foil was regarded as a light-shielded control (Dark control). Appearance by visual observation for 2 weeks, 1 month, 2 months and 3 months was recorded, and purity assessment and XPRD data collection for residual solid contents were performed.
# [2] = Persistence of Crystalline form VIII under nitrogen and on exposure to air (XRPD); type: physicochemical
# Method: A novel crystalline form was found by heating Crystalline form IV to remove water and maintaining the same for 10 minutes and named Crystalline form VIII.
# [3] = Physicochemical stability test of free form and 5 salts (60° C., 40° C./75% humidity, light); conditions: for Final purity: HPLC; for Chemical stability (purity change %/1 w), 40° C./75% RH / Chemical stability (purity change %/1 w), 60° C. / Chemical stability (purity change %/1 w), Light stability: summary Table 9; for Sensitivity to heat, humidity and light conditions (in words): 40° C./75% humidity
# Method: In the case of a light stability test, the vial was stored in a light stability test chamber while being not closed with a lid, and exposed to a total illuminance of 1.2 million lux-hr. A vial light-shielded with aluminum foil was used as an experimental control (Dark control). For stability assessment, state assessment by visual observation, purity assessment using HPLC, and crystalline form assessment using XRPD were conducted, and results thereof are shown in Table 7. […] In FIGS. 19 to 30, “Light” represents light irradiation condition results.
# [4] = Oral administration pharmacokinetic test using mice; conditions: mice, oral; for AUClast / Cmax / Tmax / t½: 10 mg/kg; for Pharmacokinetic test, t½: summary Table 9
# [5] = Dark control (light-shielded vial)
smiles,measurement,setting,value
O=S(=O)(O)O.O=S1(=O)CCN(Cc2cc(NC3CCOCC3)c3[nH]c(-c4ccccc4)cc3c2)CC1,"Area (%), impurity peak 3 (RRT 0.67)",[1]; 1.2 million lux-hr,0.226%
same,"Area (%), impurity peak 10 (RRT 1.24)",[1]; 1.2 million lux-hr,0.221%
same,"Area (%), impurity peak 12 (RRT 1.42)",[1]; 1.2 million lux-hr,0.073%
same,"Area of Sulfate (%), peak 7 (RRT 1.00, main peak)",[1]; 1.2 million lux-hr,99.382%
same,"Area (%), impurity peak 2 (RRT 0.63)","[1]; 40° C./75% RH, 1 M",0.183%
same,"Area (%), impurity peak 4 (RRT 0.68)","[1]; 40° C./75% RH, 1 M",0.061%
same,"Area (%), impurity peak 6 (RRT 0.91)","[1]; 40° C./75% RH, 1 M",0.102%
same,"Area (%), impurity peak 9 (RRT 1.12)","[1]; 40° C./75% RH, 1 M",0.518%
same,"Area (%), impurity peak 11 (RRT 1.32)","[1]; 40° C./75% RH, 1 M",0.149%
same,"Area of Sulfate (%), peak 7 (RRT 1.00, main peak)","[1]; 40° C./75% RH, 1 M",98.711%
same,"Area (%), impurity peak 1 (RRT 0.50)","[1]; 40° C./75% RH, 2 W",0.069%
same,"Area (%), impurity peak 3 (RRT 0.67)","[1]; 40° C./75% RH, 2 W",0.226%
same,"Area (%), impurity peak 10 (RRT 1.24)","[1]; 40° C./75% RH, 2 W",0.321%
same,"Area (%), impurity peak 12 (RRT 1.42)","[1]; 40° C./75% RH, 2 W",0.084%
same,"Area of Sulfate (%), peak 7 (RRT 1.00, main peak)","[1]; 40° C./75% RH, 2 W",98.769%
same,"Area (%), impurity peak 2 (RRT 0.63)","[1]; 60° C., 1 M",0.168%
same,"Area (%), impurity peak 4 (RRT 0.68)","[1]; 60° C., 1 M",0.056%
same,"Area (%), impurity peak 9 (RRT 1.12)","[1]; 60° C., 1 M",0.325%
same,"Area (%), impurity peak 11 (RRT 1.32)","[1]; 60° C., 1 M",0.088%
same,"Area of Sulfate (%), peak 7 (RRT 1.00, main peak)","[1]; 60° C., 1 M",99.247%
same,"Area (%), impurity peak 3 (RRT 0.67)","[1]; 60° C., 2 W",0.231%
same,"Area (%), impurity peak 5 (RRT 0.82)","[1]; 60° C., 2 W",0.052%
same,"Area (%), impurity peak 8 (RRT 1.11)","[1]; 60° C., 2 W",0.114%
same,"Area (%), impurity peak 10 (RRT 1.24)","[1]; 60° C., 2 W",0.211%
same,"Area (%), impurity peak 12 (RRT 1.42)","[1]; 60° C., 2 W",0.054%
same,"Area of Sulfate (%), peak 7 (RRT 1.00, main peak)","[1]; 60° C., 2 W",99.237%
same,"Area (%), impurity peak 3 (RRT 0.67)",[1]; Dark control,0.209%
same,"Area (%), impurity peak 8 (RRT 1.11)",[1]; Dark control,0.069%
same,"Area (%), impurity peak 12 (RRT 1.42)",[1]; Dark control,0.078%
same,"Area of Sulfate (%), peak 7 (RRT 1.00, main peak)",[1]; Dark control,99.326%
same,"Area (%), impurity peak 3 (RRT 0.67)",[1]; Initial,0.204%
same,"Area (%), impurity peak 8 (RRT 1.11)",[1]; Initial,0.069%
same,"Area (%), impurity peak 10 (RRT 1.24)",[1]; Initial,0.215%
same,"Area (%), impurity peak 12 (RRT 1.42)",[1]; Initial,0.08%
same,"Area of Sulfate (%), peak 7 (RRT 1.00, main peak)",[1]; Initial,99.319%
O=S1(=O)CCN(Cc2cc(NC3CCOCC3)c3[nH]c(-c4ccccc4)cc3c2)CC1 [Crystalline form VIII],Time until the crystalline form disappeared,"[2]; exposed to air, changes to Crystalline form IV",≤ 1 h
same,Persistence of the crystalline form (in words),[2]; nitrogen filling protection after cooling to 25° C.,maintained upon nitrogen filling protection after cooling to 25 °C
Cl.O=S1(=O)CCN(Cc2cc(NC3CCOCC3)c3[nH]c(-c4ccccc4)cc3c2)CC1 [Hydrochloride],Assay,[3]; 1.2 million lux-hr,108.65%
same,Purity change,[3]; 1.2 million lux-hr,0%
same,XRPD patterns,[3]; 1.2 million lux-hr,Pattern 1-I
same,Final purity,[3]; 1.2 million lux-hr,99.95%
same,Appearance,"[3]; 40° C./75% RH, 1 w",White powder
same,Assay,"[3]; 40° C./75% RH, 1 w",109.18%
same,Purity change,"[3]; 40° C./75% RH, 1 w",−0.55%
same,XRPD patterns,"[3]; 40° C./75% RH, 1 w",Pattern 1-I
same,Final purity,"[3]; 40° C./75% RH, 1 w",99.40%
same,"Chemical stability (purity change %/1 w), 40° C./75% RH","[3]; 40° C./75% RH, 1 w",−0.05%
same,Appearance,"[3]; 60° C., 1 w",White powder
same,Assay,"[3]; 60° C., 1 w",110.29%
same,Purity change,"[3]; 60° C., 1 w",+0.05%
same,XRPD patterns,"[3]; 60° C., 1 w",Pattern 1-I
same,Final purity,"[3]; 60° C., 1 w",100.0%
same,"Chemical stability (purity change %/1 w), 60° C.","[3]; 60° C., 1 w",0.18%
same,"Sensitivity to heat, humidity and light conditions (in words)","[3]; 60° C., 1.2 million lux-hr",sensitive under a humidity condition
same,Assay,[3]; Dark control,108.99%
same,Purity change,[3]; Dark control,+0.05%
same,XRPD patterns,[3]; Dark control,Pattern 1-I
same,Appearance,[3]; [5],White powder
same,Final purity,[3]; Dark control,100.0%
same,"Chemical stability (purity change %/1 w), Light stability",[3],0%
same,AUClast,[4],12261.43 ng·h/mL
same,Cmax,[4],2381.1 ng/mL
same,Tmax,[4],2 h
same,t½,[4],3.0 h
same,"Pharmacokinetic test, t½",[4],3 h
O=C(O)/C=C\C(=O)O.O=S1(=O)CCN(Cc2cc(NC3CCOCC3)c3[nH]c(-c4ccccc4)cc3c2)CC1 [Maleate],Assay,[3]; 1.2 million lux-hr,109.56%
same,Purity change,[3]; 1.2 million lux-hr,−0.17%
same,XRPD patterns,[3]; 1.2 million lux-hr,Pattern 7-I
same,Final purity,[3]; 1.2 million lux-hr,96.86%
same,Appearance,"[3]; 40° C./75% RH, 1 w",Yellow powder
same,Assay,"[3]; 40° C./75% RH, 1 w",108.85%
same,Purity change,"[3]; 40° C./75% RH, 1 w",−0.77%
same,XRPD patterns,"[3]; 40° C./75% RH, 1 w",Pattern 7-I
same,Final purity,"[3]; 40° C./75% RH, 1 w",96.26%
same,"Chemical stability (purity change %/1 w), 40° C./75% RH","[3]; 40° C./75% RH, 1 w",−0.77%
same,Appearance,"[3]; 60° C., 1 w",Yellow powder
same,Assay,"[3]; 60° C., 1 w",110.00%
same,Purity change,"[3]; 60° C., 1 w",−0.44%
same,XRPD patterns,"[3]; 60° C., 1 w",Pattern 7-I
same,Final purity,"[3]; 60° C., 1 w",96.59%
same,"Chemical stability (purity change %/1 w), 60° C.","[3]; 60° C., 1 w",−0.44%
same,"Sensitivity to heat, humidity and light conditions (in words)","[3]; 60° C., 1.2 million lux-hr","sensitive under all conditions including heat, humidity and light irradiation conditions"
same,Assay,[3]; Dark control,109.66%
same,Purity change,[3]; Dark control,+0.01%
same,XRPD patterns,[3]; Dark control,Pattern 7-I
same,Appearance,[3]; [5],Yellow powder
same,Final purity,[3]; Dark control,97.04%
same,"Chemical stability (purity change %/1 w), Light stability",[3],−0.17%
same,AUClast,[4],15780.45 ng·h/mL
same,Cmax,[4],3115.9 ng/mL
same,Tmax,[4],0.5 h
same,t½,[4],2.8 h
same,"Pharmacokinetic test, t½",[4],3 h
CS(=O)(=O)O.O=S1(=O)CCN(Cc2cc(NC3CCOCC3)c3[nH]c(-c4ccccc4)cc3c2)CC1 [Mesylate],Assay,[3]; 1.2 million lux-hr,102.69%
same,Purity change,[3]; 1.2 million lux-hr,−0.82%
same,XRPD patterns,[3]; 1.2 million lux-hr,Pattern 4-I
same,Final purity,[3]; 1.2 million lux-hr,99.18%
same,Purity decrease,[3]; 40° C. RH for 1 week,≥ 3%
same,Appearance,"[3]; 40° C./75% RH, 1 w",White powder
same,Assay,"[3]; 40° C./75% RH, 1 w",101.35%
same,Purity change,"[3]; 40° C./75% RH, 1 w",−3.29%
same,XRPD patterns,"[3]; 40° C./75% RH, 1 w",Pattern 4-I
same,Final purity,"[3]; 40° C./75% RH, 1 w",96.71%
same,"Chemical stability (purity change %/1 w), 40° C./75% RH","[3]; 40° C./75% RH, 1 w",−3.29%
same,Appearance,"[3]; 60° C., 1 w",White powder
same,Assay,"[3]; 60° C., 1 w",107.36%
same,Purity change,"[3]; 60° C., 1 w",0%
same,XRPD patterns,"[3]; 60° C., 1 w",Pattern 4-I
same,Final purity,"[3]; 60° C., 1 w",100.0%
same,"Chemical stability (purity change %/1 w), 60° C.","[3]; 60° C., 1 w",0%
same,"Sensitivity to heat, humidity and light conditions (in words)","[3]; 60° C., 1.2 million lux-hr",sensitive under humidity and light conditions
same,Assay,[3]; Dark control,103.03%
same,Purity change,[3]; Dark control,0%
same,XRPD patterns,[3]; Dark control,Pattern 4-I
same,Appearance,[3]; [5],White powder
same,Final purity,[3]; Dark control,100.0%
same,"Chemical stability (purity change %/1 w), Light stability",[3],−0.82%
same,AUClast,[4],10119.7 ng·h/mL
same,Cmax,[4],2595.2 ng/mL
same,Tmax,[4],0.5 h
same,t½,[4],2.3 h
same,"Pharmacokinetic test, t½",[4],2 h
Cc1ccc(S(=O)(=O)O)cc1.O=S1(=O)CCN(Cc2cc(NC3CCOCC3)c3[nH]c(-c4ccccc4)cc3c2)CC1 [Tosylate],Assay,[3]; 1.2 million lux-hr,105.78%
same,Purity change,[3]; 1.2 million lux-hr,−0.24%
same,XRPD patterns,[3]; 1.2 million lux-hr,Pattern 6-I
same,Final purity,[3]; 1.2 million lux-hr,98.77%
same,Appearance,"[3]; 40° C./75% RH, 1 w",White powder
same,Assay,"[3]; 40° C./75% RH, 1 w",107.73%
same,Purity change,"[3]; 40° C./75% RH, 1 w",−0.01%
same,XRPD patterns,"[3]; 40° C./75% RH, 1 w",Pattern 6-I
same,Final purity,"[3]; 40° C./75% RH, 1 w",99.00%
same,"Chemical stability (purity change %/1 w), 40° C./75% RH","[3]; 40° C./75% RH, 1 w",−0.01%
same,Appearance,"[3]; 60° C., 1 w",White powder
same,Assay,"[3]; 60° C., 1 w",108.33%
same,Purity change,"[3]; 60° C., 1 w",−0.05%
same,XRPD patterns,"[3]; 60° C., 1 w",Pattern 6-I
same,Final purity,"[3]; 60° C., 1 w",98.96%
same,"Chemical stability (purity change %/1 w), 60° C.","[3]; 60° C., 1 w",−0.05%
same,"Sensitivity to heat, humidity and light conditions (in words)","[3]; 60° C., 1.2 million lux-hr",sensitive to light
same,Assay,[3]; Dark control,108.98%
same,Purity change,[3]; Dark control,−0.03%
same,XRPD patterns,[3]; Dark control,Pattern 6-I
same,Appearance,[3]; [5],White powder
same,Final purity,[3]; Dark control,98.98%
same,"Chemical stability (purity change %/1 w), Light stability",[3],−0.24%
same,AUClast,[4],18850.98 ng·h/mL
same,Cmax,[4],3151.3 ng/mL
same,Tmax,[4],0.5 h
same,t½,[4],2.8 h
same,"Pharmacokinetic test, t½",[4],3 h
